Molecules are shown by their SMILES. Where a name gives a salt, the structure may show the parent alone. Bounds are passed on as bounds.

Data on twelve compounds can be found in patent US7858644B2, “EP4 receptor antagonists” (Asterand UK Limited, priority 2003, dated 2010).

One assay has as its target T1, human EP3 receptor (Homo sapiens, UniProt P43115).
T1 construct: expressed in transfected cells
T1 sequence (P43115 1-390): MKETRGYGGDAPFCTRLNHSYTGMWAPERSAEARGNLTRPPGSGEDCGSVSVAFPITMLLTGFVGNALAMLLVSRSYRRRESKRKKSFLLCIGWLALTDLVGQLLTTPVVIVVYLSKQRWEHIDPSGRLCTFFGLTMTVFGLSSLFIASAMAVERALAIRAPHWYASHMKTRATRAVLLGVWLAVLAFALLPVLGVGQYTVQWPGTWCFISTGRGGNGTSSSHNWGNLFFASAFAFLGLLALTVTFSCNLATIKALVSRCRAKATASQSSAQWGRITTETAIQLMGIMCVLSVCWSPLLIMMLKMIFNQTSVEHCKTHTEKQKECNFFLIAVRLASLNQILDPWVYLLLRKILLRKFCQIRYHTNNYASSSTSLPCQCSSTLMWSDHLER
The experiment in a line: Binding ability to human EP3 receptor ([3H]PGE2 displacement). Conditions: membranes from cells stably transfected with human EP receptor cDNA; [3H]PGE2 2.5 nM; Cheng-Prusoff from IC50; read-out: pKi EP3 (converted). How it is done:
(§1) Membranes were prepared from cells stably transfected with human EP receptor cDNA. In brief, cells were cultured to confluency, scraped from culture flasks, and centrifuged (800 g, 8 minutes, 4° C.). Cells were twice washed in ice cold homogenisation buffer containing 10 mMTris-HCl, 1 mM EDTA. 2Na, 250 mM sucrose, 1 mM PMSF, 0.3 mM indomethacin, pH 7.4, homogenised and re-centrifuged as before. The supernatant was stored on ice and pellets re-homogenised and re-spun. Supernatants were pooled and centrifuged at 40000 g, 10 minutes, 4° C. Resultant membrane pellets were stored at −80° C. until use.
(§2) For assay, membranes expressing human EP4, EP3, EP2 or EP1 receptors were incubated in Millipore (MHVBN45) plates containing assay buffer, radiolabelled [^3H]PGE2 and 0.1 to 10 000 nM concentrations of compounds. Incubations were performed at suitable temperatures and for suitable times to allow equilibrium to be reached. Non-specific binding was determined in the presence of 10 uM PGE2. Bound and free radiolabel was separated by vacuum manifold filtration using appropriate wash buffers, and bound radiolabel was determined by scintillation counting. Constituents of each of the buffers are included in table 1 below.
(§3) This approach follows that set out in Kenakin, T. P., Pharmacologic analysis of drug receptor interaction. Raven Press, New York, 2nd edition.

The target in another assay is T2, human EP2 receptor (Homo sapiens, UniProt P43116).
T2 construct: expressed in transfected cells
T2 sequence (P43116 whole entry): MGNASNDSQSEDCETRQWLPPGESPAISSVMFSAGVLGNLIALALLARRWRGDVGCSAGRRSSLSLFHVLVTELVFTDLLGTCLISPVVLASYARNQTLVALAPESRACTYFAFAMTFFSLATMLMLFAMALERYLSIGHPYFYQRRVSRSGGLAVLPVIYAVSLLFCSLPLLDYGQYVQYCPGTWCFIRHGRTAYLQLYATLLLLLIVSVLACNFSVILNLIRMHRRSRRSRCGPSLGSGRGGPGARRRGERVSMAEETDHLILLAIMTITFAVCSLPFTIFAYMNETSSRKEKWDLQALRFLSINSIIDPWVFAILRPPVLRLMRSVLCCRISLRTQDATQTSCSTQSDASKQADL
The experiment in a line: Binding ability to human EP2 receptor ([3H]PGE2 displacement). The following applies: read-out: pKi EP2 (converted). How it is done: as §1, §2, §3

As for `COc1ccc(-c2ccc(OCc3cc(C(=O)O)oc3C)cc2)cc1` [Compound 4, 4-(4′-Methoxy-biphenyl-4-yloxymethyl)-5-methyl-furan-2-carboxylic acid], the Ki at human EP3 receptor and at human EP2 receptor was more than 10 µM each time.

Turning to `COc1ccc(-c2ccc(OCc3cc(C(=O)NS(=O)(=O)c4ccccc4)oc3C)cc2)cc1` [Compound 5, N-[4-(4′-Methoxy-biphenyl-4-yloxymethyl)-5-methyl-furan-2-carbonyl]-benzenesulfonamide], the values for the Ki on human EP3 receptor and at human EP2 receptor were more than 10 µM and more than 3.16 µM, respectively.

For `COc1ccc(-c2ccc(OCc3cc(C(=O)NS(=O)(=O)Cc4ccccc4)oc3C)cc2)cc1` [Compound 6, N-[4-(4′-Methoxy-biphenyl-4-yloxymethyl)-5-methyl-furan-2-carbonyl]-C-phenyl-methanesulfonamide], the Ki at human EP3 receptor and at human EP2 receptor was more than 10 µM each time.

On to `COc1ccc(-c2ccc(OCc3cc(C(=O)NS(C)(=O)=O)oc3C)cc2)cc1` [Compound 7, N-[4-(4′-Methoxy-biphenyl-4-yloxymethyl)-5-methyl-furan-2-carbonyl]-methanesulfonamide], for which the Ki at human EP3 receptor and on human EP2 receptor was more than 10 µM each time.

Turning to `CCCS(=O)(=O)NC(=O)c1cc(COc2ccc(-c3ccc(OC)cc3)cc2)c(C)o1` [Compound 8, Propane-1-sulfonic acid [4-(4′-methoxy-biphenyl-4-yloxymethyl)-5-methyl-furan-2-carbonyl]-amide], the Ki at human EP3 receptor and on human EP2 receptor was more than 10 µM each time.

With `COc1ccc(-c2ccc(OCc3cc(C(=O)NS(=O)(=O)c4c(C)noc4C)oc3C)cc2)cc1` [Compound 9, 3,5-Dimethyl-isoxazole-4-sulfonic acid [4-(4′-methoxy-biphenyl-4-yloxymethyl)-5-methyl-furan-2-carbonyl]-amide], the Ki on human EP3 receptor and at human EP2 receptor was more than 10 µM in each case.

On to `COc1ccc(-c2ccc(OCc3cc(C(=O)NS(=O)(=O)c4cccs4)oc3C)cc2)cc1` [Compound 10, Thiophene-2-sulfonic acid [4-(4′-methoxy-biphenyl-4-yloxymethyl)-5-methyl-furan-2-carbonyl]-amide], for which the Ki at human EP3 receptor is more than 10 µM; on human EP2 receptor, more than 3.16 µM.

As for `COc1ccc(-c2ccc(OCc3cc(C(=O)NS(=O)(=O)c4ccc(C)cn4)oc3C)cc2)cc1` [Compound 11, 5-Methyl-pyridyl-2-sulfonic acid [4-(4′-methoxy-biphenyl-4-yloxymethyl)-5-methyl-furan-2-carbonyl]-amide], the Ki on human EP3 receptor and at human EP2 receptor was more than 10 µM each time.

In the case of `COc1ccc(-c2ccc(OCc3cc(C(=O)NS(=O)(=O)c4ccc(CN)cc4)oc3C)cc2)cc1` [Compound 12, 4-Aminomethyl-N-[4-(4′-methoxy-biphenyl-4-yloxymethyl)-5-methyl-furan-2-carbonyl]-benzenesulfonamide trifluoroacetate], the Ki on human EP3 receptor and at human EP2 receptor was more than 10 µM each time.

Take `COc1ccc(-c2ccc(OCc3cc(C(=O)NS(=O)(=O)c4ccc(O)cc4)oc3C)cc2)cc1` [Compound 13, 4-Hydroxy-N-[4-(4′-methoxy-biphenyl-4-yloxymethyl)-5-methyl-furan-2-carbonyl]-benzenesulfonamide]: the Ki at human EP3 receptor and on human EP2 receptor was more than 10 µM throughout.

In the case of `Cc1oc(C(=O)NS(=O)(=O)c2ccccc2)cc1COc1ccc(-c2ccccc2)cc1` [Compound 19, N-[4-(Biphenyl-4-yloxymethyl)-5-methyl-furan-2-carbonyl]-benzenesulfonamide], the Ki on human EP3 receptor and at human EP2 receptor was more than 10 µM each time.

As for `CC(=O)c1ccc(-c2ccc(OCc3cc(C(=O)O)oc3C)cc2)cc1` [Compound 21, 4-(4′-Acetyl-biphenyl-4-yloxymethyl)-5-methyl-furan-2-carboxylic acid], the Ki on human EP3 receptor and on human EP2 receptor was more than 10 µM each time.
